Data: patent US6083920A, “Compositions for modulating intracellular inositol trisphosphate concentration” (priority 1996, dated 2000)
Values joined by “and” are separate entries in the source; they are usually repeats but may differ in a detail not shown here. Identical values can stand only once. “Also recorded” adds a separate entry of the source.

Key:
[1] = Lysosphingolipid loading of isolated neuronal plasma membrane; assay type: in vitro ADME, chick; settings: Plasma Membrane Suspension, 10 μmolar exposure
From the text: Total lipids were removed from the neuron samples by repeated extraction with chloroforn:methanol (2:1, vol:vol). […] The recovered lysosphingolipids were stably tagged with NBDZF by the rapid procedure of Nozowa et al. (supra). The fluorescence tagged neuronal lysosphingolipids were separated in parallel with reference standards NBDZF-Sph, NBDZF-Psy, and NBDZF-Lsm on high performance silica gel thin layer chromatography plates with acetonitrile:H2 O (10:0.5, vol:vol). The highly fluorescent, well separated bands were scraped from the plate. The fluorescence tagged lysosphingolipids are eluted from the scraped silica gel with methanol:1 N HCl (1:0.02, vol:vol). The fluorescence tagged lysosphingolipid eluates were quantitated against reference standards by fluorescence measurement in a Perkin-Elmer LS-5 Fluorescence Spectrometer.
Physiologically active phospholipase C is present on the endofacial portion of the plasma membrane. A procedure for examining its activity in an intact membrane is provided. […] One hundred Petri dishes of cultured cortical neurons were incubated overnight with 50 μCi [^3 H]myo-inositol per mL of culture medium. […] The collected neurons were homogenized in 5 mL 0.32 M sucrose and centrifuged at 1000×g for 15 minutes. The supernatant was layered on top of 2 ml 1.2 M sucrose and centrifuged at 300,000×g for 20 minutes. The sedimented pellet was resuspended by sonication for 10 seconds in 50 mM Tris buffer (pH 7.4), containing 0.3 μM CaCl2, 1 mM MgCl2, and 0.01% ascorbic acid.
The suspended plasma membrane preparation was apportioned into 250 μl samples, each providing approximately 100 μg membrane protein. Sphingosine, psychosine, and lysosphingomyelin were added to each plasma membrane sample. […] Samples were analyzed for lysosphingolipid loading (i.e., membrane lysosphingolipid content following exposure to exogenous sphingolipid) by fluorescence tagging. […] Values are reported in pmoles lysosphingolipid/mg plasma membrane protein.

[2] = tested on: metabotropic glutamate receptor; test: Behavioral analysis after ICV infusion (quisqualate excitotoxicity); assay type: in vivo, male F344 rats; settings: for convulsant behavior, compound alone: no quisqualate; for effective dose: ICV, pilot testing; for behavioral or neurotoxic effects of the compound itself: doses as high as 125 nmoles per animal ICV; for behavioral and histological changes caused by quisqualate: pretreated with 125 nmoles ICV; for death, cases: 120 min
Method: The animals used in this experiment were male F344 rats (Charles River Breeding Laboratories). The animals were housed individually, exposed to a 12-hour light-dark cycle, and allowed free access to food and water. The animals weighed approximately 250 g at the beginning of each experiment and were weighed daily. In addition, the animals were habituated to handling before each experiment.
Before administering various compounds, the animals were anesthetized with sodium pentobarbital (50 mg/kg, i.p.) and positioned in a sterotaxic instrument. A 26 gauge cannula was inserted into the cerebral ventricle at the following co-ordinates: 1.0 mm posterior to bregma, 1.5 mm lateral to the midline, and 4.0 mm below the dorsal surface of the neocortex. Cannulas were capped and fixed in place with dental cement. One week after cannulation, 10 μl of each of the treatment drugs was infused, ICV (i.e. into the ventricals of the brain), via a micropump at a rate of 10 μl/min. For this procedure, the animals were lightly restrained and unanesthetized. Following administration of the compound, the infusion cannula remained in position for one minute, after which the permanent in situ cannula was capped.
The compounds administered were obtained from a commercial supplier (Sigma Chemical Co., St. Louis, Mo.) and dissolved in saline prior to injection. […]
Pilot studies identified several specific behavioral measures that could be used to indicate excessive activation of the metabotropic receptor (see Table 3). […] The experiments that follow were based on an analysis of these behaviors over a two hour period after administration of the compounds of the invention. Behavioral observation was carried out by two trained observers, who worked independently of one another and who were blind to the experimental groups. […] Frequency and duration means were computed by subtracting pre-infusion means from post-infusion means.
Some of the experiments that were performed first were carried out to determine the amount of quisqualate required to produce behavioral and histological changes and the amount of lysosphingolipids that could effectively prevent or reverse these effects. Table 3 outlines the behavioral responses of rats to various doses of quisqualate (injected as described above) and the associated histological changes. The behaviors are listed as they occur chronologically. The limb clasp and reflex tests indicate the degree of decortication. A limb clasp or placement score of zero is normal, and a score of 3 is severely abnormal.
The data shown in Table 4 represents the observations of pilot studies aimed at determining the effect (on behavior) of lysosphingolipids infused directly into the lateral ventricles of the brain 30 minutes prior to infusion of quisqualate.
The experiment began one week after ICV cannulation. Animals (n=6 per group) were randomly allocated to one of 8 treatment groups: (1) saline, (2) quisqualate at 225 nmoles, (3) psychosine at 125 nmoles, (4) lysosphingomyelin at 125 nmoles, (5) lysosphingomyelin at 150 nmoles, (6) quisqualate at 225 nmoles and psychosine at 125 nmoles, (7) quisqualate at 225 nmoles and lysosphingomyelin at 125 nmoles, and (8) quisqualate at 225 nmoles and lysosphingomyelin at 150 nmoles. Following the baseline observation period, animals received the first of two ICV infusions (all infusions were of a 10 μl volume that was administered over a 1 minute period). For the first five groups listed above, this consisted of saline (10 μl/minute), for the following 3 groups the infusions were psychosine at 125 nmoles, lysosphingomyelin at 125 nmoles, or Iysosphingomyelin at 150 nmoles, respectively. Thirty minutes later, all animals received the second infusion which, for the first five groups listed above, consisted of saline, quisqualate at 225 nmoles, psychosine at 125 nmoles, lysosphingomyelin at 125 mrnoles, and lysosphingomyelin at 150 nmoles respectively. […]

[3] = pretreatment 125 nmoles ICV 30 minutes before quisqualate 225 nmoles, n=6
[4] = Quisqualate 225 nmoles ICV, rat
[5] = Quisqualate 250 nmoles ICV, rat

In the case of `CCCCCCCCCCCCC/C=C/[C@@H](O)[C@@H](N)CO` [sphingosine], the “membrane lysosphingolipid content, 0 hours of incubation” value [1] is reported as 105 ± 5 pmoles lysosphingolipid/mg pla, the “membrane lysosphingolipid content, 0.5 hours of incubation” value [1] is reported as 113 ± 15 pmoles lysosphingolipid/mg pla and the “membrane lysosphingolipid content, 1.0 hours of incubation” value [1] is reported as 140 ± 15 pmoles lysosphingolipid/mg pla. For the same compound, the “membrane lysosphingolipid content, 2.0 hours of incubation” value [1] was 165 ± 20 pmoles lysosphingolipid/mg pla and the “membrane lysosphingolipid content, 3.0 hours of incubation” value [1] was 175 ± 25 pmoles lysosphingolipid/mg pla.
For `CCCCCCCCCCCCC/C=C/[C@@H](O)[C@@H](N)COP(=O)([O-])OCC[N+](C)(C)C` [lysosphingomyelin, sphingosyl phosphoryicholine], the “membrane lysosphingolipid content, 0 hours of incubation” value [1] was 5 ± 1 pmoles lysosphingolipid/mg pla, the “membrane lysosphingolipid content, 0.5 hours of incubation” value [1] was 65 ± 15 pmoles lysosphingolipid/mg pla and the “membrane lysosphingolipid content, 1.0 hours of incubation” value [1] was 110 ± 15 pmoles lysosphingolipid/mg pla. For the same compound, the “membrane lysosphingolipid content, 2.0 hours of incubation” value [1] was 120 ± 10 pmoles lysosphingolipid/mg pla, the “membrane lysosphingolipid content, 3.0 hours of incubation” value [1] was 145 ± 25 pmoles lysosphingolipid/mg pla and the “convulsant behavior, compound alone” value ([2]; 125 nmoles ICV) was “displayed no convulsant behavior”. The “convulsant behavior, compound alone” value ([2]; 150 nmoles ICV) was “displayed no convulsant behavior”, the effective dose ([2]; rat) was 125 nmol and 150 nmol and the “sedation produced by the lysosphingolipid” value ([2]; Lysosphingomyelin 150 nmoles ICV) was “mild sedation”. For the same compound, the “behavioral or neurotoxic effects of the compound itself” value [2] was “no behavioral or neurotoxic effects were observed”, the “behavioral and histological changes caused by quisqualate” value ([2]; rat) was “absent” and the “number of convulsions or spasms” value [2, 3] was “significantly (p<01) attenuated”. For the same compound, the “number of convulsions or spasms” value ([2]; pretreatment 150 nmoles ICV 30 minutes before quisqualate 225 nmoles, n=6) was “significantly (p<01) attenuated” and the “time quisqualate-alone animals spent in teeth chattering, akinesia and mobilization compared with this group” value ([2]; quisqualate 225 nmoles and lysophingomyelin 150 nmoles ICV) was “significantly (p<.01) more time”.
With `CCCCCCCCCCCCC/C=C/[C@@H](O)[C@@H](N)CO[C@@H]1O[C@H](CO)[C@H](O)[C@H](O)[C@H]1O` [psychosine, lysocerebroside] the “membrane lysosphingolipid content, 0 hours of incubation” value [1] was 45 ± 5 pmoles lysosphingolipid/mg pla, the “membrane lysosphingolipid content, 0.5 hours of incubation” value [1] was 75 ± 20 pmoles lysosphingolipid/mg pla and the “membrane lysosphingolipid content, 1.0 hours of incubation” value [1] was 120 ± 15 pmoles lysosphingolipid/mg pla. The “membrane lysosphingolipid content, 2.0 hours of incubation” value [1] was 180 ± 15 pmoles lysosphingolipid/mg pla, the “membrane lysosphingolipid content, 3.0 hours of incubation” value [1] was 175 ± 20 pmoles lysosphingolipid/mg pla and the “convulsant behavior, compound alone” value ([2]; 125 nmoles ICV) was “displayed no convulsant behavior”. For the same compound, the effective dose ([2]; rat) was 125 nmol, the “BEHAVIORAL RESPONSE” value ([2]; Psychosine 25 nmoles ICV 30 minutes prior to Quisqualate 200 nmoles) was “Moderate convulsions, teeth chattering; also recorded: akinesia and hyperactivity” and the “BEHAVIORAL RESPONSE” value ([2]; Psychosine 50 nmoles ICV 30 minutes prior to Quisqualate 200 nmoles) was “Moderate convulsions, teeth chattering; also recorded: akinesia and hyperactivity”. The “BEHAVIORAL RESPONSE” value ([2]; Psychosine 100 nmoles ICV 30 minutes prior to Quisqualate 200 nmoles) was “Almost complete attenuation of Quisqualate; also recorded: some teeth chattering post-injection”, the “BEHAVIORAL RESPONSE” value ([2]; Psychosine 100 nmoles ICV 30 minutes prior to Quisqualate 250 nmoles) was “Moderate convulsions, teeth chattering; also recorded: akinesia. Quisqualate markedly reduced” and the “BEHAVIORAL RESPONSE” value ([2]; Psychosine 125 nmoles ICV 30 minutes prior to Quisqualate 200 nmoles) was “Complete attenuation of Quisqualate response”. The “BEHAVIORAL RESPONSE” value ([2]; Psychosine 125 nmoles ICV 30 minutes prior to Quisqualate 225 nmoles) was “Complete attenuation of Quisqualate response”, the “BEHAVIORAL RESPONSE” value ([2]; Psychosine 150 nmoles ICV 30 minutes prior to Quisqualate 250 nmoles) was “Almost complete attenuation of Quisqualate” and the “sedation produced by the lysosphingolipid” value ([2]; Psychosine 150 nmoles ICV, short term) was “sedation at this dose”. The “behavioral or neurotoxic effects of the compound itself” value [2] was “no behavioral or neurotoxic effects were observed”, the “behavioral and histological changes caused by quisqualate” value ([2]; rat) was “absent” and the “number of convulsions or spasms” value [2, 3] was “significantly (p<01) attenuated”.
For `N[C@@H](Cn1oc(=O)[nH]c1=O)C(=O)O` [Quisqualate, quisqualate], the effective dose ([2]; rat) was 225 nmol, the BEHAVIOR ([2]; Quisqualate 100 nmoles ICV, rat) was “teeth chatter; also recorded: mild scratching; also recorded: hind leg weakness 60 minutes” and the “placement and clasp reflex score” value ([2]; Quisqualate 100 nmoles ICV, score zero is normal, 3 is severely abnormal) was 0. For the same compound, the BEHAVIOR ([2]; Quisqualate 150 nmoles ICV, rat) was “teeth chatter; also recorded: localized twitches; also recorded: mild hyperactivity walking in circles; also recorded: hind leg weakness for 60 minutes”, the BEHAVIOR ([2]; Quisqualate 150 nmoles ICV, rat, listed as quisqualate) was “increase in activity and teeth chattering” and the “placement and clasp reflex score” value ([2]; Quisqualate 150 nmoles ICV, score zero is normal, 3 is severely abnormal) was 0. For the same compound, the BEHAVIOR ([2]; Quisqualate 200 nmoles ICV, rat) was “teeth chatter; also recorded: occasional mild convulsions; also recorded: hyperactivity - circle walking; also recorded: episodic akinesia/tonic immobility; also recorded: hind leg weakness”, the “limb clasp and placement reflex score” value ([2]; Quisqualate 200 nmoles ICV, score zero is normal, 3 is severely abnormal) was 0 and the BEHAVIOR [2, 4] was “teeth chatter; also recorded: hind leg paralysis; also recorded: hyperactivity/walk in circles; also recorded: full body convulsions - moderate; also recorded: localized spasms twitching/jerking; also recorded: episodic akinesia/tonic immobility; also recorded: respiratory distress; also recorded: foaming at mouth”. For the same compound, the “death, cases” value [2, 4] was 60%, the BEHAVIOR ([2]; Quisqualate 225 nmoles ICV, rat, listed as quisqualate) was “moderate convulsions” and the “placement and clasp reflex score” value ([2]; Quisqualate 225 nmoles ICV, score zero is normal, 3 is severely abnormal) was 1-2. The BEHAVIOR [2, 5] was “vocalization; also recorded: teeth chattering; also recorded: scratching; also recorded: localized spasms jerking/twitching; also recorded: full body convulsions-severe/repeated; also recorded: foaming at mouth; also recorded: respiratory distress”, the “death, cases” value [2, 5] was 75% and the BEHAVIOR ([2]; Quisqualate 250 nmoles ICV, rat, listed as quisqualate) was “severe convulsions and death”. The “placement and clasp reflex score” value ([2]; Quisqualate 250 nmoles ICV, score zero is normal, 3 is severely abnormal) was 3, the BEHAVIOR ([2]; Quisqualate 1 μmoles ICV, rat) was “severe repeated full body convulsions; also recorded: severe scratching; also recorded: severe teeth chattering; also recorded: foaming at mouth” and the time to death ([2]; Quisqualate 1 μmoles ICV, rat) was 5 to 15 min. The “death, cases” value ([2]; Quisqualate 1 μmoles ICV, rat) was 100%, the BEHAVIOR ([2]; Quisqualate 500 μmoles ICV, rat) was “vocalization” and the “duration of teeth chattering, akinesia and mobilization versus lysosphingolipid-alone groups and quisqualate + lysosphingomyelin 150 nmoles” value ([2]; quisqualate alone 225 nmoles ICV) was “significantly (p<.01) more time engaged in these behaviors”. The “number of convulsions/spasms compared to all other groups” value ([2]; quisqualate alone at 225 nmoles ICV, 2 hours observation, n=6) was “significantly (p.<01) more convulsions/spasms”.
